Measured values as given in patent US20250123269A1 (priority 2023, published 2025).

How the values were obtained:
[1] = tested on: SARS-COV-2 B.1.1.529 omicron; type: cell-based
[2] = tested on: SARS-COV-2 B.1.617.2 delta; type: cell-based

SMILES	dose-dependent inhibition of infection [1]	inhibition of infection [1]	reduction of infection [1]	dose-dependent inhibition of infection [2]	inhibition of infection [2]	reduction of infection [2]
O=c1nc(NO)ccn1[C@@H]1O[C@H](CO)[C@@H](O)[C@H]1O [EIDD-1931]	dose-dependent inhibition of infection	complete inhibition	at least 50%	dose-dependent inhibition of infection	complete inhibition	at least 50%
Cc1c(O)cccc1C(=O)N[C@@H](CSc1ccccc1)[C@H](O)CN1C[C@H]2CCCC[C@H]2C[C@H]1C(=O)NC(C)(C)C [nelfinavir]	dose-dependent inhibition of infection	did not completely inhibit infection		dose-dependent inhibition of infection	did not completely inhibit infection	
CC(C)(C)[C@H](NC(=O)C(F)(F)F)C(=O)N1C[C@H]2[C@@H]([C@H]1C(=O)N[C@H](C#N)C[C@@H]1CCNC1=O)C2(C)C [nirmatrelvir, Nirmatrelvir]	dose-dependent inhibition of infection	nearly completely inhibited		dose-dependent inhibition of infection		50%
